pEC50: −log10 of the molar value. Active and inactive are the calls of the source. No cut-off for these calls is given here.
Tests used:
THP-1 [1] = assay: Antiinflammatory activity in PMA-differentiated human THP-1 monocytes assessed as increase in IL-10 production at 10 uM incubated for 24 hrs in the presence of N-(adamantan-1-yl)-4-(pentylamino)-[1,1'-biphenyl]-3-carboxamide by ELISA coupled qRT-PCR analysis; assay type: functional, cell-based
THP-1 [2] = assay: Antiinflammatory activity in PMA-differentiated human THP-1 macrophages assessed as increase in IL-10 production at 10 uM incubated for 24 hrs by ELISA coupled qRT-PCR analysis; assay type: functional, cell-based
THP-1 [3] = assay: Antiinflammatory activity against LPS-activated PMA-differentiated human THP-1 monocytes assessed as increase in IL-4 production at 10 uM incubated for 24 hrs in the presence of N-(adamantan-1-yl)-4-(pentylamino)-[1,1'-biphenyl]-3-carboxamide by ELISA coupled qRT-PCR analysis; assay type: functional, cell-based
THP-1 [4] = assay: Antiinflammatory activity in human THP-1 monocytes assessed as decrease in IL-1beta production at 10 uM incubated for 24 hrs in the presence of JTE907 by ELISA coupled qRT-PCR analysis; assay type: functional, cell-based
THP-1 [5] = assay: Antiinflammatory activity in PMA-differentiated human THP-1 monocytes assessed as decrease in IL-6 production at 10 uM incubated for 24 hrs in the presence of N-(adamantan-1-yl)-4-(pentylamino)-[1,1'-biphenyl]-3-carboxamide by ELISA coupled qRT-PCR analysis; assay type: functional, cell-based
THP-1 [6] = assay: Antiinflammatory activity against LPS-activated PMA-differentiated human THP-1 macrophages assessed as increase in IL-10 production at 10 uM incubated for 24 hrs by ELISA coupled qRT-PCR analysis; assay type: functional, cell-based
THP-1 [7] = assay: Antiinflammatory activity in PMA-differentiated human THP-1 monocytes assessed as decrease in IL-1beta production at 10 uM incubated for 24 hrs in the presence of N-(adamantan-1-yl)-4-(pentylamino)-[1,1'-biphenyl]-3-carboxamide by ELISA coupled qRT-PCR analysis; assay type: functional, cell-based
THP-1 [8] = assay: Antiinflammatory activity in PMA-differentiated human THP-1 macrophages assessed as reduction in IL-6 production at 10 uM incubated for 24 hrs by ELISA coupled qRT-PCR analysis relative to control; assay type: functional; parameters: scale not given: the % may be the effect or the level left
THP-1 [9] = assay: Antiinflammatory activity in PMA-differentiated human THP-1 macrophages assessed as reduction in IL-1beta production at 10 uM incubated for 24 hrs by ELISA coupled qRT-PCR analysis relative to control; assay type: functional; parameters: scale not given: the % may be the effect or the level left
THP-1 [10] = assay: Antiinflammatory activity against LPS-activated human THP-1 monocytes assessed as decrease in IFN-gamma production at 10 uM incubated for 24 hrs in the presence of N-(adamantan-1-yl)-4-(pentylamino)-[1,1'-biphenyl]-3-carboxamide by ELISA coupled qRT-PCR analysis; assay type: functional, cell-based
THP-1 [11] = assay: Antiinflammatory activity against LPS-activated PMA-differentiated human THP-1 monocytes assessed as decrease in IL-1beta production at 10 uM incubated for 24 hrs in the presence of N-(adamantan-1-yl)-4-(pentylamino)-[1,1'-biphenyl]-3-carboxamide by ELISA coupled qRT-PCR analysis; assay type: functional, cell-based
THP-1 [12] = assay: Antiinflammatory activity in human THP-1 monocytes assessed as increase in IL-10 production at 10 uM incubated for 24 hrs in the presence of N-(adamantan-1-yl)-4-(pentylamino)-[1,1'-biphenyl]-3-carboxamide by ELISA coupled qRT-PCR analysis; assay type: functional, cell-based
THP-1 [13] = assay: Antiinflammatory activity in human THP-1 monocytes assessed as decrease in IL-6 production at 10 uM incubated for 24 hrs in the presence of N-(adamantan-1-yl)-4-(pentylamino)-[1,1'-biphenyl]-3-carboxamide by ELISA coupled qRT-PCR analysis; assay type: functional, cell-based
THP-1 [14] = assay: Antiinflammatory activity in human THP-1 monocytes assessed as decrease in IL-1beta production at 1 to 10 uM incubated for 24 hrs in the presence of JTE907 by ELISA coupled qRT-PCR analysis; assay type: functional, cell-based; conditions: dose 1-10 µM
THP-1 [15] = assay: Antiinflammatory activity against LPS-activated PMA-differentiated human THP-1 macrophages assessed as decrease in IL-1beta production at 1 to 10 uM incubated for 24 hrs by ELISA coupled qRT-PCR analysis relative to control; assay type: functional; parameters: scale not given: the % may be the effect or the level left; conditions: dose 1-10 µM
THP-1 [16] = assay: Antiinflammatory activity in human THP-1 monocytes assessed as decrease in IFN-gamma production incubated for 24 hrs by ELISA coupled qRT-PCR analysis; assay type: functional, cell-based; conditions: dose 1-10 µM
THP-1 [17] = assay: Antiinflammatory activity in LPS-activated PMA-differentiated human THP-1 macrophages assessed as decrease in TNF-alpha production at 1 to 10 uM incubated for 24 hrs in the presence of JTE907 by ELISA coupled qRT-PCR analysis; assay type: functional, cell-based; conditions: dose 1-10 µM
THP-1 [18] = assay: Antiinflammatory activity in human THP-1 monocytes assessed as increase in IL-4 production at 1 to 10 uM incubated for 24 hrs in the presence of JTE907 by ELISA coupled qRT-PCR analysis; assay type: functional, cell-based; conditions: dose 1-10 µM
THP-1 [19] = assay: Antiinflammatory activity in PMA-differentiated human THP-1 macrophages assessed as reduction in TNF-alpha production at 1 to 10 uM incubated for 24 hrs by ELISA coupled qRT-PCR analysis relative to control; assay type: functional; parameters: scale not given: the % may be the effect or the level left; conditions: dose 1-10 µM
Cannabinoid receptor 2 = Cannabinoid receptor 2 (Homo sapiens, UniProt P34972); assay: Agonist activity at human CB2 receptor expressed in CHO-K1 cells assessed as inhibition of NKH-477 induced cAMP production incubated for 30 mins by luminescence based analysis; assay type: functional, cell-based
Sequence of Cannabinoid receptor 2 (P34972 whole entry): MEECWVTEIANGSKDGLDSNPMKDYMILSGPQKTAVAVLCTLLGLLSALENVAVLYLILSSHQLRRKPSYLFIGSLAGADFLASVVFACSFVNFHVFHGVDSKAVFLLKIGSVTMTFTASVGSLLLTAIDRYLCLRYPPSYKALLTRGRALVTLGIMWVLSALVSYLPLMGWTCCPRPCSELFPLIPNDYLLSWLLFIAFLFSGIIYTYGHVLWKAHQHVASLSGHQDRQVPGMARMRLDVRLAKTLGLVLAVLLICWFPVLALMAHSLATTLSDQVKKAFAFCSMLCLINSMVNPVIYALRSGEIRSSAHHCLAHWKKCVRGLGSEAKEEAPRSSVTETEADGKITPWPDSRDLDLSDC

THP-1 [20] = assay: Antiinflammatory activity in LPS-activated PMA-differentiated human THP-1 macrophages assessed as decrease in IL-1beta production at 1 to 10 uM incubated for 24 hrs in the presence of JTE907 by ELISA coupled qRT-PCR analysis; assay type: functional, cell-based; conditions: dose 1-10 µM
THP-1 [21] = assay: Antiinflammatory activity in human THP-1 monocytes assessed as decrease in TNF-alpha production incubated for 24 hrs by ELISA coupled qRT-PCR analysis; assay type: functional, cell-based; conditions: dose 1-10 µM
THP-1 [22] = assay: Antiinflammatory activity in human THP-1 monocytes assessed as decrease in TNF-alpha production at 1 to 10 uM incubated for 24 hrs in the presence of JTE907 by ELISA coupled qRT-PCR analysis; assay type: functional, cell-based; conditions: dose 1-10 µM
THP-1 [23] = assay: Antiinflammatory against LPS-activated human THP-1 monocytes assessed as decrease in IFN-gamma production at 1 to 10 uM incubated for 24 hrs in the presence of JTE907 by ELISA coupled qRT-PCR analysis; assay type: functional, cell-based; conditions: dose 1-10 µM
THP-1 [24] = assay: Antiinflammatory against LPS-activated human THP-1 monocytes assessed as decrease in IL-6 production at 1 to 10 uM incubated for 24 hrs in the presence of JTE907 by ELISA coupled qRT-PCR analysis; assay type: functional, cell-based; conditions: dose 1-10 µM
THP-1 [25] = assay: Antiinflammatory activity in PMA-differentiated human THP-1 macrophages assessed as decrease in IL-1beta production at 1 to 10 uM incubated for 24 hrs in the presence of JTE907 by ELISA coupled qRT-PCR analysis; assay type: functional, cell-based; conditions: dose 1-10 µM
THP-1 [26] = assay: Antiinflammatory activity in PMA-differentiated human THP-1 macrophages assessed as increase in IL-4 production at 1 to 10 uM incubated for 24 hrs by ELISA coupled qRT-PCR analysis; assay type: functional, cell-based; conditions: dose 1-10 µM

O=C(NC1CCCCC1)c1cn(CCN2CCOCC2)c2cc(Cl)ccc2c1=O
Activity (THP-1 [1]): inactive | Activity (THP-1 [2]): Active | Activity (THP-1 [3]): inactive | Activity (THP-1 [4]): inactive | Activity (THP-1 [5]): inactive | Activity (THP-1 [6]): Active | Activity (THP-1 [7]): inactive | Activity (THP-1 [8]): 50% | Activity (THP-1 [9]): 50% | Activity (THP-1 [10]): inactive | Activity (THP-1 [11]): inactive | Activity (THP-1 [12]): inactive | Activity (THP-1 [13]): inactive

CCCCCNc1ccccc1C(=O)NC12CC3CC(CC(C3)C1)C2
Activity (THP-1 [14]): inactive | Activity (THP-1 [15]): 70% | Activity (THP-1 [16]): Dose-Dependent Effect | Activity (THP-1 [17]): inactive | Activity (THP-1 [18]): inactive | Activity (THP-1 [19]): 50% | pEC50 (Cannabinoid receptor 2): 6.25 | Activity (THP-1 [20]): inactive | Activity (THP-1 [21]): Dose-Dependent Effect | Activity (THP-1 [22]): inactive | Activity (THP-1 [23]): inactive | Activity (THP-1 [24]): inactive | Activity (THP-1 [25]): inactive | Activity (THP-1 [26]): Active
